The source of these data is US11136313B2, “Compounds, compositions, and methods for modulating CFTR” (Proteostasis Therapeutics, Inc., priority 2015, dated 2021).

The target of this experiment is T1, ΔF508-CFTR (Homo sapiens, UniProt P13569, DEL508-508).
T1 construct: Primary lung epithelial cells homozygous for the Cystic Fibrosis-causing ΔF508 mutation were differentiated for a minimum of 4 weeks; endogenous in cells; host or cells: primary lung epithelial cells (hBE) homozygous for ΔF508, differentiated at an air-liquid interface
T1 sequence (P13569 with tags, fused parts or gaps DEL508-508): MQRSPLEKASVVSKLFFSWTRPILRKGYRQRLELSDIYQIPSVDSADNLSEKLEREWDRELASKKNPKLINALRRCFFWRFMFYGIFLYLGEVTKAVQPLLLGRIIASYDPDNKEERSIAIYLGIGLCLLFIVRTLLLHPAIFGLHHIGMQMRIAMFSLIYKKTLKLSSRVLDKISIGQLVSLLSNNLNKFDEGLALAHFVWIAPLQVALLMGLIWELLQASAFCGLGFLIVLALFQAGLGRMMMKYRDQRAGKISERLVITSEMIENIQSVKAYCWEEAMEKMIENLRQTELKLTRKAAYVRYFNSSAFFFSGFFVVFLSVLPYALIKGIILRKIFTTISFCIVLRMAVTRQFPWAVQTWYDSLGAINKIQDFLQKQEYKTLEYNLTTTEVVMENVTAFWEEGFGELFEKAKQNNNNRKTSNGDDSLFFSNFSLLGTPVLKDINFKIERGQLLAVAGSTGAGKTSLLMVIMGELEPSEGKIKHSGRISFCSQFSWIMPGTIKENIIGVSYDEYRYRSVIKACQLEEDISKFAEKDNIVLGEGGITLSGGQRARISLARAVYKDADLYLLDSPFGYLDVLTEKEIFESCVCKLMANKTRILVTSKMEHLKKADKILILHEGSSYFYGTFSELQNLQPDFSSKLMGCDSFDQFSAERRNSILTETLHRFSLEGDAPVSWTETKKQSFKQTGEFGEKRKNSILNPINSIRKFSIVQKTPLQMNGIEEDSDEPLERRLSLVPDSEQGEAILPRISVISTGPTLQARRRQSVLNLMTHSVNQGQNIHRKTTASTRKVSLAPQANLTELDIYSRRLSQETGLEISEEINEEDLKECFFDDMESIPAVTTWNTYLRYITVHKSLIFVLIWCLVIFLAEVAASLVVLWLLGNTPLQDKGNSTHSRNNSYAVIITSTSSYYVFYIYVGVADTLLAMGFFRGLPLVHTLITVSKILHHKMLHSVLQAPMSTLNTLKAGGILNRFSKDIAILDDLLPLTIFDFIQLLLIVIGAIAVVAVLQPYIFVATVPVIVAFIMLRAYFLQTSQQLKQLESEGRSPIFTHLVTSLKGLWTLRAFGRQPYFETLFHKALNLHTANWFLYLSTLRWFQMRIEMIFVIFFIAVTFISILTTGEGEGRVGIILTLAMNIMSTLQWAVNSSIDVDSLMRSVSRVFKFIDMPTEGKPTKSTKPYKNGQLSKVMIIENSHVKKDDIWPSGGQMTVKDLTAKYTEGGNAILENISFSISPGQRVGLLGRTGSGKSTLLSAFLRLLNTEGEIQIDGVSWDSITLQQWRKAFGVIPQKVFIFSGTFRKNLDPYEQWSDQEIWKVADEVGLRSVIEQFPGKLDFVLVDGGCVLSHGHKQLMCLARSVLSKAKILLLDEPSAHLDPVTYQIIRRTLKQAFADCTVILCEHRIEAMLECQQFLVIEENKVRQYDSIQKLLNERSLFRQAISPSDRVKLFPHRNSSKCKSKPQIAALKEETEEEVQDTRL
Kind of experiment: hBE equivalent current (Ieq) assay: AUC of equivalent chloride current after forskolin/VX-770 in primary lung epithelial cells homozygous for ΔF508. The note with it: relative to CFTR amplifier (Compound A)+VX-809 (3 uM), compound at 10 uM and Compound A at 3 uM, 24 h treatment. The experiment is classed as cell-based. In outline: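 ΔF508/ΔF508 primary human bronchial epithelia, differentiated ≥4 weeks at air-liquid interface, treated basolaterally with compound for 24 h at 37 °C. Transepithelial voltage and conductance by 24-channel current clamp at 36 °C: benzamil, then forskolin plus VX-770 for 27 min, then bumetanide; AUC of equivalent chloride current over vehicle.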
In the case of `Cc1c(-c2cc(C(=O)O)c3c(OC(F)(F)F)ccc(C)c3n2)oc2ccccc12` [Compound 121, 8-Methyl-2-(3-methyl-1-benzofuran-2-yl)-5-(trifluoromethoxy)quinoline-4-carboxylic acid], the Activity entry is “+ (activity<50% of an CFTR amplifier (Compound A)+VX-809 (3 uM) with compound at 10 uM and Compound A at 3 uM)”. With `Cc1c(-c2cc(C(=O)[O-])c3c(O[C@@H](C)C4CCOCC4)ccc(C)c3n2)sc2ccccc12.[Na+]` [Compound 329], the Activity result was “++ (activity>50% of CFTR amplifier+VX-809 (3 uM) with compound at 10 uM and Compound A at 3 uM)”. For the compound `Cc1c(-c2cc(C(=O)[O-])c3c(O[C@@H]4CCC[C@@H](c5ccccc5)C4)ccc(C)c3n2)oc2ccccc12.[Na+]` [Compound 301], the Activity result was “++ (activity>50% of CFTR amplifier+VX-809 (3 uM) with compound at 10 uM and Compound A at 3 uM)”. On to `Cc1c(-c2cc(C(=O)[O-])c3c(OC4CCOCC4)ccc(C)c3n2)sc2ccccc12.[Na+]` [Compound 331], for which the Activity result is “++ (activity>50% of CFTR amplifier+VX-809 (3 uM) with compound at 10 uM and Compound A at 3 uM)”. For `Cc1ccc(O[C@H](C)c2ccccc2)c2c(C(=O)[O-])cc(-c3nc4ccccn4c3C)nc12.[Na+]` [Compound 200], the Activity result is “+ (activity<50% of an CFTR amplifier (Compound A)+VX-809 (3 uM) with compound at 10 uM and Compound A at 3 uM)”. Consider `Cc1c(-c2cc(C(=O)[O-])c3c(OCc4ccc(S(C)(=O)=O)cc4)ccc(C)c3n2)sc2ccccc12.[Na+]` [Compound 264], for which the Activity result is “++ (activity>50% of CFTR amplifier+VX-809 (3 uM) with compound at 10 uM and Compound A at 3 uM)”. For the compound `Cc1c(-c2cc(C(=O)[O-])c3c(OC[C@H]4CC[C@@](C)(O)CC4)ccc(C)c3n2)sc2ccccc12.[Na+]` [Compound 322], the Activity result is “++ (activity>50% of CFTR amplifier+VX-809 (3 uM) with compound at 10 uM and Compound A at 3 uM)”. As to `Cc1ccc(OCc2ccccc2)c2c(C(=O)O)cc(-c3csc4ccccc34)nc12` [Compound 95, 2-(1-Benzothiophen-3-yl)-5-(benzyloxy)-8-methylquinoline-4-carboxylic acid], the Activity result was “++ (activity>50% of CFTR amplifier+VX-809 (3 uM) with compound at 10 uM and Compound A at 3 uM)”. As for `CNS(=O)(=O)c1ccc([C@H](C)Oc2ccc(C)c3nc(-c4oc5ccccc5c4C)cc(C(=O)[O-])c23)cc1.[Na+]` [Compound 240, Sodium 8-Methyl-2-(3-methyl-1-benzofuran-2-yl)-5-[(1S)-1-[4-(methylsulfamoyl)phenyl]ethoxy]quinoline-4-carboxylate], the entry is “++ (activity>50% of CFTR amplifier+VX-809 (3 uM) with compound at 10 uM and Compound A at 3 uM)”. On to `Cc1cc(Cl)cc2cc(C(=O)O)c(-c3cc4ccccc4o3)nc12` [Compound 12, 2-(1-Benzofuran-2-yl)-6-chloro-8-methylquinoline-3-carboxylic Acid], for which the Activity entry was “+ (activity<50% of an CFTR amplifier (Compound A)+VX-809 (3 uM) with compound at 10 uM and Compound A at 3 uM)”.

With `Cc1ccc(OC(C)c2ccccc2)c2c(C(=O)[O-])cc(-c3cc4ccccn4c3)nc12.[Na+]` (centres unmarked) [Compound 328], the Activity entry was “++ (activity>50% of CFTR amplifier+VX-809 (3 uM) with compound at 10 uM and Compound A at 3 uM)”. Take `Cc1cc(C)c2nc(-c3nc4ccccc4s3)cc(C(=O)O)c2c1` [Compound 2, 2-(1,3-Benzothiazol-2-yl)-6,8-dimethylquinoline-4-carboxylic Acid]: the Activity result is “+ (activity<50% of an CFTR amplifier (Compound A)+VX-809 (3 uM) with compound at 10 uM and Compound A at 3 uM)”. With `Cc1c(-c2cc(C(=O)O)c3c(OC(C)c4ccc(S(N)(=O)=O)cc4)ccc(C)c3n2)oc2ccccc12` (centres unmarked) [Compound 360], the Activity result is “++ (activity>50% of CFTR amplifier+VX-809 (3 uM) with compound at 10 uM and Compound A at 3 uM)”. For the compound `Cc1ccccc1COc1ccc(C)c2nc(-c3sc4ccccc4c3C)cc(C(=O)[O-])c12.[Na+]` [Compound 303], the Activity result was “++ (activity>50% of CFTR amplifier+VX-809 (3 uM) with compound at 10 uM and Compound A at 3 uM)”. As for `Cc1c(-c2cc(C(=O)O)c3cc(C(C)(C)C)cc(C)c3n2)oc2ccccc12` [Compound 27, 6-tert-Butyl-8-methyl-2-(3-methyl-1-benzofuran-2-yl)quinoline-4-carboxylic acid], the Activity result was “++ (activity>50% of CFTR amplifier+VX-809 (3 uM) with compound at 10 uM and Compound A at 3 uM)”. For the compound `Cc1c(-c2cc(C(=O)[O-])c3c(O[C@@H](C)c4ccc(S(N)(=O)=O)cc4)ccc(C)c3n2)oc2ccccc12.[Na+]` [Compound 238, Sodium 8-Methyl-2-(3-methyl-1-benzofuran-2-yl)-5-[(1S)-1-(4-sulfamoylphenyl)ethoxy]quinoline-4-carboxylate], the Activity result was “++ (activity>50% of CFTR amplifier+VX-809 (3 uM) with compound at 10 uM and Compound A at 3 uM)”.

For `Cc1ccc(O[C@@H](C)c2ccccc2)c2c(C(=O)[O-])cc(-c3nc4ccccn4c3C)nc12.[Na+]` [Compound 201], the Activity result was “++ (activity>50% of CFTR amplifier+VX-809 (3 uM) with compound at 10 uM and Compound A at 3 uM)”. Regarding `Cc1c(-c2cc(C(=O)O)c3cc(OC(F)F)cc(C)c3n2)oc2ccccc12` [Compound 118, 6-(Difluoromethoxy)-8-methyl-2-(3-methyl-1-benzofuran-2-yl)quinoline-4-carboxylic acid], the Activity result is “++ (activity>50% of CFTR amplifier+VX-809 (3 uM) with compound at 10 uM and Compound A at 3 uM)”. Turning to `Cc1c(-c2cc(C(=O)[O-])c3c(OC[C@H]4CC[C@@](C)(O)CC4)ccc(C)c3n2)oc2ccccc12.[Na+]` [Compound 376], the Activity entry was “++ (activity>50% of CFTR amplifier+VX-809 (3 uM) with compound at 10 uM and Compound A at 3 uM)”. Take `Cc1ccc([C@H](C)Oc2ccc(C)c3nc(-c4sc5ccccc5c4C)cc(C(=O)[O-])c23)cc1.[Na+]` [Compound 227, Sodium 8-Methyl-2-(3-methyl-1-benzothiophen-2-yl)-5-[(1S)-1-(4-methylphenyl)ethoxy]quinoline-4-carboxylate]: the Activity entry was “++ (activity>50% of CFTR amplifier+VX-809 (3 uM) with compound at 10 uM and Compound A at 3 uM)”. Then `Cc1c(-c2cc(C(=O)[O-])c3c(O[C@@H](C)C4CCOCC4)ccc(C)c3n2)oc2ccccc12.[Na+]` [Compound 246, Sodium 5-((1S)-1-(tetrahydro-2H-pyran-4-yl)ethoxy)-8-methyl-2-(3-methyl-1-benzofuran-2-yl)quinoline-4-carboxylate], with “++ (activity>50% of CFTR amplifier+VX-809 (3 uM) with compound at 10 uM and Compound A at 3 uM)”; and `Cc1c(-c2cc(C(=O)O)c3c(OC4CCCCC4)ccc(C)c3n2)sc2ccccc12` [Compound 134, 5-(Cyclohexyloxy)-8-methyl-2-(3-methyl-1-benzothiophen-2-yl)quinoline-4-carboxylic acid], with “++ (activity>50% of CFTR amplifier+VX-809 (3 uM) with compound at 10 uM and Compound A at 3 uM)”; and `Cc1c(-c2cc(C(=O)[O-])c3c(OC[C@H]4CC[C@](C)(O)CC4)ccc(C)c3n2)sc2ccccc12.[Na+]` [Compound 323], with “++ (activity>50% of CFTR amplifier+VX-809 (3 uM) with compound at 10 uM and Compound A at 3 uM)”.
